Source: US20240058457A1, “BTK DEGRADER” (Newave Pharmaceutical Inc., priority 2020, published 2024)

biological target: T1, BTK (Homo sapiens, UniProt Q06187); test: BTK HTRF degradation assay; type: cell-based; details: treatment time 24 h; Cisbio Total-BTK HTRF; Rec-1 / Ramos cells
T1 construct: endogenous in cells; host or cells: Rec-1 cells (ATCC) / Ramos cells
Protocol: Rec-1 cells were obtained from American Type Culture Collection and were grown in RPMI-1640 media (ATCC, 30-2001) supplemented with 10% heat-inactivated FBS (Corning Premium Fetal Bovine Serum from Fisher, MT35015CV). Compounds of the present invention were added to 50,000 Ramos cells in round-bottom 96 well plates with a final DMSO concentration of […] and were incubated at 37° C. 5% CO2 for different time. BTK levels were determined using Cisbio Total-BTK HTRF ([…] Time-Resolved Fluorescence) kit (63ADK064PEG) according to manufacturer's protocol. Briefly, cells were incubated in 1× supplied lysis buffer for 30 minutes. In an opaque white low volume 96 well plate (Cisbio, 66PL96005), cell lysate was combined with two different specific BTK antibodies, one conjugated with Eu3+-Cryptate FRET donor and one conjugated with d2 FRET acceptor. Assay controls include wells containing cell lysate with only the Eu3+-Cryptate FRET donor antibody and wells containing both HTRF antibodies and lysis buffer without cells or control lysate provided by Cisbio. HTRF ratio was calculated as (acceptor signal at 665 nm/donor signal at 620 nm)×[…]. Background HTRF levels were determined from the control well containing the donor, but no acceptor, antibody. Background HTRF levels were subtracted from all samples. Readouts were reported as HTRF levels relative to HTRF levels of DMSO-treated cells. Four-parameter non-linear regressions were performed in GraphPad Prism 7.02 to obtain DC50 values.

T1 sequence (Q06187 whole entry): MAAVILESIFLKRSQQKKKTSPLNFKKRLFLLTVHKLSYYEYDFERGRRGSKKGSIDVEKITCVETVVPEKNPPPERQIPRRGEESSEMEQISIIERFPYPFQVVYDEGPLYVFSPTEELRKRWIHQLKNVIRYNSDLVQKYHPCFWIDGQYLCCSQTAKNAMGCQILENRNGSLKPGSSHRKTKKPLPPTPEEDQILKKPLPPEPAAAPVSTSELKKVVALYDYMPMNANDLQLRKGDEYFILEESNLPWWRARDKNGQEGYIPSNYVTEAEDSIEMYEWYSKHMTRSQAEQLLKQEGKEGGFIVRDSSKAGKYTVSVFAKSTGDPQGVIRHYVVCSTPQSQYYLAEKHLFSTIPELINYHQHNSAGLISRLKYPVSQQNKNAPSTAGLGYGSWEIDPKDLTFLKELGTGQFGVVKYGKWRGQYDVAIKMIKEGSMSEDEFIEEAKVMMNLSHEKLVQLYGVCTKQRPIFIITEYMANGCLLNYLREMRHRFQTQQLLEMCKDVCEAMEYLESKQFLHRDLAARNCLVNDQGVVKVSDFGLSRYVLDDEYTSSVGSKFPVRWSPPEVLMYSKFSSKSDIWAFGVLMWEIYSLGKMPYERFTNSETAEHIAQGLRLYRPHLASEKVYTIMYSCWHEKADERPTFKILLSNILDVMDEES

Row | DC50 | Dmax % | Dmax | Molecule
1 | > 1000 nM | 7% |  | 5-{4-[(3S)-4-{6-[(6-tert-butyl-2′. {4,4-dimethyl-9-oxo-1,10-diazatricyclo[6.4.0.0^{2,6}]dodeca-2(6),7-dien-10-yl}-3′-(hydroxymethyl)-[3,4′-bipyridin]-5-yl)amino]pyridin-3-yl}-3-methylpiperazin-1-yl]piperidin-1-yl}-2-(2,6-dioxopiperidin-3-yl)isoindole-1,3-dione [Example 12]
2 | 2.04 nM |  | 97% | C[C@H]1CN(C2CC(C#Cc3ccc4c(c3)C(=O)N(C3CCC(=O)NC3=O)C4=O)C2)CCN1c1ccc(Nc2cc(-c3ccnc(N4CCn5c(cc6c5CC(C)(C)C6)C4=O)c3CO)cn(C)c2=O)nc1 (stereo partly drawn) [Example 3, 5-((3-((S)-4-(6-((2′-(7,7-dimethyl-1-oxo-1,3,4,6,7,8-hexahydro-2H-cyclopenta[4,5]pyrrolo[1,2-a]pyrazin-2-yl)-3′-(hydroxymethyl)-1-methyl-6-oxo-1,6-dihydro-[3,4′-bipyridin]-5-yl)amino)pyridin-3-yl)-3-methylpiperazin-1-yl)cyclobutyl)ethynyl)-2-(2,6-dioxopiperidin-3-yl)isoindoline-1,3-dione]
3 | 0.9 nM | 99% |  | C[C@H]1CN(C2CCN(c3ccc4c(c3)C(=O)N(C3CCC(=O)NC3=O)C4=O)CC2)CCN1c1ccc(Nc2cc(-c3ccnc(N4CCc5c(sc6c5CCCC6)C4=O)c3CO)cn(C)c2=O)nc1 (stereo partly drawn) [Example 9, 2-(2,6-dioxopiperidin-3-yl)-5-{4-[(3S)-4-(6-{[3′-(hydroxymethyl)-1-methyl-6-oxo-2′-{6-oxo-8-thia-5-azatricyclo[7.4.0.0^{2,7}]trideca-1(9),2(7)-dien-5-yl}-[3,4′-bipyridin]-5-yl]amino}pyridin-3-yl)-3-methylpiperazin-1-yl]piperidin-1-yl}isoindole-1,3-dione]
4 | 4.63 nM | 99% |  | Cc1c(-c2cc(Nc3ccc(N4CCN(C5CCN(c6ccc7c(c6)C(=O)N(C6CCC(=O)NC6=O)C7=O)CC5)C[C@@H]4C)cn3)c(=O)n(C)c2)ccnc1N1CCn2c(cc3c2CC(C)(C)C3)C1=O (stereo partly drawn) [Example 10, 5-{4-[(3S)-4-{6-[(2′-{4,4-dimethyl-9-oxo-1,10-diazatricyclo[6.4.0.0^{2,6}]dodeca-2(6),7-dien-10-yl}-1,3′-dimethyl-6-oxo-[3,4′-bipyridin]-5-yl)amino]pyridin-3-yl}-3-methylpiperazin-1-yl]piperidin-1-yl}-2-(2,6-dioxopiperidin-3-yl)isoindole-1,3-dione]
5 | 9.49 nM | 99% |  | C[C@H]1CN(C2CCN(c3ccc4c(c3)C(=O)N(C3CCC(=O)NC3=O)C4=O)CC2)CCN1c1ccc(Nc2cc(-c3ccnc(N4CCc5c(sc6c5CCCC6)C4=O)c3CO)cn(C)c2=O)nc1 (stereo partly drawn) [Example 11, 2-(2,6-dioxopiperidin-3-yl)-5-{4-[(3S)-4-(6-{[3′-(hydroxymethyl)-1-methyl-6-oxo-2′-{6-oxo-8-thia-5-azatricyclo[7.4.0.0^{2,7}]trideca-1(9),2(7)-dien-5-yl}-[3,4′-bipyridin]-5-yl]amino}pyridin-3-yl)-3-methylpiperazin-1-yl]piperidin-1-yl}isoindole-1,3-dione]
6 | 4.4 nM | 98% |  | C[C@H]1CN(C2CCN(c3ccc4c(c3)C(=O)N(C3CCC(=O)NC3=O)C4=O)CC2)CCN1c1ccc(Nc2cc(-c3ccnc(N4CCn5c(cc6c5CC(C)(C)C6)C4=O)c3CO)ccn2)nc1 (stereo partly drawn) [Example 13, 5-{4-[(3S)-4-{6-[(2′-{4,4-dimethyl-9-oxo-1,10-diazatricyclo[6.4.0.0^{2,6}]dodeca-2(6),7-dien-10-yl}-3′-(hydroxymethyl)-[4,4′-bipyridin]-2-yl)amino]pyridin-3-yl}-3-methylpiperazin-1-yl]piperidin-1-yl}-2-(2,6-dioxopiperidin-3-yl)isoindole-1,3-dione]
7 | 1.15 nM | 94% |  | COc1ncc(-c2ccnc(N3CCn4c(cc5c4CC(C)(C)C5)C3=O)c2CO)cc1Nc1ccc(N2CCN(C3CCN(c4ccc5c(c4)C(=O)N(C4CCC(=O)NC4=O)C5=O)CC3)C[C@@H]2C)cn1 (stereo partly drawn) [Example 14, 5-{4-[(3S)-4-{6-[(2′-{4,4-dimethyl-9-oxo-1,10-diazatricyclo[6.4.0.0^{2,6}]dodeca-2(6),7-dien-10-yl}-3′-(hydroxymethyl)-6-methoxy-[3,4′-bipyridin]-5-yl)amino]pyridin-3-yl}-3-methylpiperazin-1-yl]piperidin-1-yl}-2-(2,6-dioxopiperidin-3-yl)isoindole-1,3-dione]
8 | 21.7 nM | 98% |  | C[C@H]1CN(C2CCN(c3ccc4c(c3)C(=O)N(C3CCC(=O)NC3=O)C4=O)CC2)CCN1c1ccc(Nc2cc(-c3ccnc(N4CCn5c(cc6c5CC(C)(C)C6)C4=O)c3CO)ncn2)nc1 (stereo partly drawn) [Example 15, 5-{4-[(3S)-4-(6-{[6-(2-{4,4-dimethyl-9-oxo-1,10-diazatricyclo[6.4.0.0^{2,6}]dodeca-2(6),7-dien-10-yl}-3-(hydroxymethyl)pyridin-4-yl)pyrimidin-4-yl]amino}pyridin-3-yl)-3-methylpiperazin-1-yl]piperidin-1-yl}-2-(2,6-dioxopiperidin-3-yl)isoindole-1,3-dione]
9 | 29.6 nM |  | 97% | C[C@H]1CN([C@@H]2CCN3c4ccc5c(c4OC[C@H]3C2)C(=O)N(C2CCC(=O)NC2=O)C5=O)CCN1c1ccc(Nc2cc(-c3ccnc(N4CCn5c(cc6c5CC(C)(C)C6)C4=O)c3CO)cn(C)c2=O)nc1 (stereo partly drawn) [Example 16, (5aR,7R)-7-((S)-4-(6-((2′-(7,7-dimethyl-1-oxo-1,3,4,6,7,8-hexahydro-2H-cyclopenta[4,5]pyrrolo[1,2-a]pyrazin-2-yl)-3′-(hydroxymethyl)-1-methyl-6-oxo-1,6-dihydro-[3,4′-bipyridin]-5-yl)amino)pyridin-3-yl)-3-methylpiperazin-1-yl)-2-(2,6-dioxopiperidin-3-yl)-5,5a,6,7,8,9-hexahydro-1H-pyrido[1′,2′:4,5][1,4]oxazino[2,3-e]isoindole-1,3(2H)-dione]
10 | 3.58 nM |  |  | C[C@H]1CN([C@H]2CCN3c4ccc5c(c4OC[C@H]3C2)C(=O)N(C2CCC(=O)NC2=O)C5=O)CCN1c1ccc(Nc2cc(-c3ccnc(N4CCn5c(cc6c5CC(C)(C)C6)C4=O)c3CO)cn(C)c2=O)nc1.Cl (stereo partly drawn) [Example 17, hydrochloride]
11 |  | 95% |  | C[C@H]1CN([C@H]2CCN3c4ccc5c(c4OC[C@H]3C2)C(=O)N(C2CCC(=O)NC2=O)C5=O)CCN1c1ccc(Nc2cc(-c3ccnc(N4CCn5c(cc6c5CC(C)(C)C6)C4=O)c3CO)cn(C)c2=O)nc1.Cl (stereo partly drawn) [Example 17]
12 | 22.8 nM |  |  | C[C@H]1CN([C@H]2CCN3c4ccc5c(c4OC[C@@H]3C2)C(=O)N(C2CCC(=O)NC2=O)C5=O)CCN1c1ccc(Nc2cc(-c3ccnc(N4CCn5c(cc6c5CC(C)(C)C6)C4=O)c3CO)cn(C)c2=O)nc1.Cl (stereo partly drawn) [Example 18, hydrochloride]
13 |  | 93% |  | C[C@H]1CN([C@H]2CCN3c4ccc5c(c4OC[C@@H]3C2)C(=O)N(C2CCC(=O)NC2=O)C5=O)CCN1c1ccc(Nc2cc(-c3ccnc(N4CCn5c(cc6c5CC(C)(C)C6)C4=O)c3CO)cn(C)c2=O)nc1.Cl (stereo partly drawn) [Example 18]

Row | Molecule | DC50 | Dmax % | Dmax
14 | C[C@H]1CN(C2CN(c3ccc4c(c3)C(=O)N(C3CCC(=O)NC3=O)C4=O)C2)CCN1c1ccc(Nc2cc(-c3ccnc(N4CCn5c(cc6c5CC(C)(C)C6)C4=O)c3CO)cn(C)c2=O)nc1 (stereo partly drawn) [Example 1, 5-{3-[(3S)-4-{6-[(2′-{4,4-dimethyl-9-oxo-1,10-diazatricyclo[6.4.0.0^{2,6}]dodeca-2(6),7-dien-10-yl}-3′-(hydroxymethyl)-1-methyl-6-oxo-[3,4′-bipyridin]-5-yl)amino]pyridin-3-yl}-3-methylpiperazin-1-yl]azetidin-1-yl}-2-(2,6-dioxopiperidin-3-yl)isoindole-1,3-dione] | 1.16 nM | 100% | 
